Assay results reported in ChEMBL document CHEMBL1147180, “Quantitative structure-selectivity relationship for M2 selectivity between M1 and M2 of piperidinyl piperidine derivatives as muscarinic antagonists” (Bioorg Med Chem Lett, 2007).

Tests used:
[1] = molecular target: Muscarinic acetylcholine receptors; M1 & M2 (Homo sapiens) (UniProt P11229+P08172); experiment: Selectivity for muscarinic M1 receptor over muscarinic M2 receptor; assay type: protein assay
[2] = molecular target: T1, Muscarinic acetylcholine receptor M1 (Homo sapiens, UniProt P11229); experiment: Binding affinity to muscarinic M1 receptor
T1 sequence (P11229 whole entry): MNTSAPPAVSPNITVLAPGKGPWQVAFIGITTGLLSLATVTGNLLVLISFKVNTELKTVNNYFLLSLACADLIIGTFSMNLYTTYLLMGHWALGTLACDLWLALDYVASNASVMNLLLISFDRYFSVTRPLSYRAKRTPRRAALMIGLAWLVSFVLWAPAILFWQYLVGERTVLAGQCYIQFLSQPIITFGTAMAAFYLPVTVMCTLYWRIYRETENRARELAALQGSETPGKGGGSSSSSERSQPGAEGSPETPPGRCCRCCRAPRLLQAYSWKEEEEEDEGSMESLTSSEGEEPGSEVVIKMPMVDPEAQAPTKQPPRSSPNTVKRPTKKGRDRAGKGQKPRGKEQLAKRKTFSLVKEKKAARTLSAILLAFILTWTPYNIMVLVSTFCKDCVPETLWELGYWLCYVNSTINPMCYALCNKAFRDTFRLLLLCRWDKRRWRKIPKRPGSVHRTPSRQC

Ratio pKi [1] | Ki [2] [nM] | SMILES
2.04 |  | C=C(c1ccc(S(=O)(=O)c2ccc(OC)cc2)cc1)C1CCN(C2CCN(C(=O)CCC)CC2)CC1
2.42 | 68.1 | C=C(c1ccc(S(=O)(=O)c2ccc(OC)cc2)cc1)C1CCN(C2CCN(C(=O)C3CC3)CC2)CC1
1.72 | 117 | C=C(c1ccc(S(=O)(=O)c2ccc(OC)cc2)cc1)C1CCN(C2CCN(C(=O)C(C)C)CC2)CC1
1.77 |  | C=C(c1ccc(S(=O)(=O)c2ccc(OC)cc2)cc1)C1CCN(C2CCN(C(=O)OCC)CC2)CC1
2.21 | 74.5 | C=C(c1ccc(S(=O)(=O)c2ccc(OC)cc2)cc1)C1CCN(C2CCN(S(=O)(=O)CC)CC2)CC1
1.95 |  | C=C(c1ccc(S(=O)(=O)c2ccc(OC)cc2)cc1)C1CCN(C2CCN(S(=O)(=O)CCC)CC2)CC1
1.84 | 40.7 | C=C(c1ccc(S(=O)(=O)c2ccc(OC)cc2)cc1)C1CCN(C2CCN(C(=O)OCCC)CC2)CC1
1.54 | 10.5 | C=C(c1ccc(S(=O)(=O)c2ccc(OC)cc2)cc1)C1CCN(C2CCN(C(=O)OCC(C)C)CC2)CC1
2.3 | 31.7 | C=C(c1ccc(S(=O)(=O)c2ccc(OC)cc2)cc1)C1CCN(C2CCN(S(=O)(=O)C(C)C)CC2)CC1
1.5 | 95.7 | C=C(c1ccc(S(=O)(=O)c2ccc(OC)cc2)cc1)C1CCN(C2CCN(C(=O)Cc3ccccc3)CC2)CC1
2.02 | 37.4 | C=C(c1ccc(S(=O)(=O)c2ccc(OC)cc2)cc1)C1CCN(C2CCN(S(=O)(=O)c3ccccc3)CC2)CC1
1.45 | 9.79 | C=C(c1ccc(S(=O)(=O)c2ccc(OC)cc2)cc1)C1CCN(C2CCN(C(=O)OCCCC)CC2)CC1
2.18 | 57 | C=C(c1ccc(S(=O)(=O)c2ccc(OC)cc2)cc1)C1CCN(C2CCN(S(=O)(=O)CCCC)CC2)CC1
1.36 | 33.3 | C=C(c1ccc(S(=O)(=O)c2ccc(OC)cc2)cc1)C1CCN(C2CCN(S(=O)(=O)Cc3ccccc3)CC2)CC1
1.56 | 14.8 | C=C(c1ccc(S(=O)(=O)c2ccc(OC)cc2)cc1)C1CCN(C2CCN(C(=O)OC(C)C)CC2)CC1
0.903 |  | C=C(c1ccc(S(=O)(=O)c2ccc(OC)cc2)cc1)C1CCN(C2CCNCC2)CC1
1.38 | 10.8 | C=C(c1ccc(S(=O)(=O)c2ccc(OC)cc2)cc1)C1CCN(C2CCN(C(=O)OCc3ccccc3)CC2)CC1
1.2 | 60.8 | C=C(c1ccc(S(=O)(=O)c2ccc(OC)cc2)cc1)C1CCN(C2CCN(C(=O)CC)CC2)CC1
1.78 | 60.4 | C=C(c1ccc(S(=O)(=O)c2ccc(OC)cc2)cc1)C1CCN(C2CCN(C(=O)OC)CC2)CC1
